According to ChEMBL document CHEMBL3885881, “DrugMatrix”:

Species: Rattus norvegicus
Experiment: DrugMatrix - Regimen: Daily Repeat
Assay type: toxicity, organism-based, Sprague-Dawley
Design: regimen Daily Repeat, gender Male, age 6-8 weeks
Conditions: in vivo, po, route oral GAVAGE, vehicle .5 % CMC; for BASOPHIL / EOSINOPHIL / ERYTHROCYTE COUNT / HEMATOCRIT / HEMOGLOBIN / LYMPHOCYTE / MEAN CORPUSCULAR HEMOGLOBIN / MEAN CORPUSCULAR HEMOGLOBIN CONCENTRATION / MEAN CORPUSCULAR VOLUME / MONOCYTE / NEUTROPHIL / PLATELET COUNT: tissue Blood; for ALANINE AMINOTRANSFERASE / ALBUMIN / ALKALINE PHOSPHATASE / ASPARTATE AMINOTRANSFERASE / BLOOD UREA NITROGEN / CHLORIDE / CHOLESTEROL / CREATINE PHOSPHOKINASE / CREATININE / GLUCOSE / PHOSPHORUS / POTASSIUM / SODIUM / TOTAL BILIRUBIN / TOTAL PROTEIN: tissue Plasma
[1] = 0 mg/kg, 72 h, dose level Control, time 3 day
[2] = 0 mg/kg, 120 h, dose level Control, time 5 day
[3] = 10 mg/kg, 72 h, dose level Low, time 3 day
[4] = 10 mg/kg, 120 h, dose level Low, time 5 day
[5] = 750 mg/kg, 72 h, dose level High, time 3 day
[6] = 750 mg/kg, 120 h, dose level High, time 5 day

OCCN(CCO)c1nc(N2CCCCC2)c2nc(N(CCO)CCO)nc(N3CCCCC3)c2n1 [DIPYRIDAMOLE]
BASOPHIL [1]: 0% | EOSINOPHIL [1]: 0% | ERYTHROCYTE COUNT [1]: 6.34 x10E6/uL | HEMATOCRIT [1]: 37.62% | HEMOGLOBIN [1]: 14.82 G/DL | LYMPHOCYTE [1]: 87.5% | MEAN CORPUSCULAR HEMOGLOBIN [1]: 23.48 pg | MEAN CORPUSCULAR HEMOGLOBIN CONCENTRATION [1]: 39.5 G/DL | MEAN CORPUSCULAR VOLUME [1]: 59.45 fL | MONOCYTE [1]: 1.67% | NEUTROPHIL [1]: 10.83% | PLATELET COUNT [1]: 1074.83 x10E3/uL | ALANINE AMINOTRANSFERASE [1]: 36.5 u/L | ALBUMIN [1]: 3.9 G/DL | ALKALINE PHOSPHATASE [1]: 370.17 u/L | ASPARTATE AMINOTRANSFERASE [1]: 63.17 u/L | BLOOD UREA NITROGEN [1]: 16.83 mg/dL | CHLORIDE [1]: 99.33 MEQ/L | CHOLESTEROL [1]: 64.33 mg/dL | CREATINE PHOSPHOKINASE [1]: 127 u/L | CREATININE [1]: 0.55 mg/dL | GLUCOSE [1]: 173.5 mg/dL | PHOSPHORUS [1]: 10.08 mg/dL | POTASSIUM [1]: 6.23 MEQ/L | SODIUM [1]: 143.5 MEQ/L | TOTAL BILIRUBIN [1]: 0.52 mg/dL | TOTAL PROTEIN [1]: 6.35 G/DL | BASOPHIL [2]: 0% | EOSINOPHIL [2]: 0.17% | ERYTHROCYTE COUNT [2]: 6.12 x10E6/uL | HEMATOCRIT [2]: 37.08% | HEMOGLOBIN [2]: 14.82 G/DL | LYMPHOCYTE [2]: 83.33% | MEAN CORPUSCULAR HEMOGLOBIN [2]: 24.25 pg | MEAN CORPUSCULAR HEMOGLOBIN CONCENTRATION [2]: 39.97 G/DL | MEAN CORPUSCULAR VOLUME [2]: 60.65 fL | MONOCYTE [2]: 1.5% | NEUTROPHIL [2]: 15% | PLATELET COUNT [2]: 1042.83 x10E3/uL | ALANINE AMINOTRANSFERASE [2]: 46 u/L | ALBUMIN [2]: 3.82 G/DL | ALKALINE PHOSPHATASE [2]: 369.5 u/L | ASPARTATE AMINOTRANSFERASE [2]: 65 u/L | BLOOD UREA NITROGEN [2]: 16.33 mg/dL | CHLORIDE [2]: 100.67 MEQ/L | CHOLESTEROL [2]: 57.17 mg/dL | CREATINE PHOSPHOKINASE [2]: 130 u/L | CREATININE [2]: 0.53 mg/dL | GLUCOSE [2]: 163.33 mg/dL | PHOSPHORUS [2]: 9.53 mg/dL | POTASSIUM [2]: 6.27 MEQ/L | SODIUM [2]: 144.83 MEQ/L | TOTAL BILIRUBIN [2]: 0.55 mg/dL | TOTAL PROTEIN [2]: 6.32 G/DL | BASOPHIL [3]: 0% | EOSINOPHIL [3]: 0.33% | ERYTHROCYTE COUNT [3]: 6.75 x10E6/uL | HEMATOCRIT [3]: 39.77% | HEMOGLOBIN [3]: 15.7 G/DL | LYMPHOCYTE [3]: 90.67% | MEAN CORPUSCULAR HEMOGLOBIN [3]: 23.23 pg | MEAN CORPUSCULAR HEMOGLOBIN CONCENTRATION [3]: 39.53 G/DL | MEAN CORPUSCULAR VOLUME [3]: 58.8 fL | MONOCYTE [3]: 0.33% | NEUTROPHIL [3]: 8.67% | PLATELET COUNT [3]: 1406 x10E3/uL | ALANINE AMINOTRANSFERASE [3]: 42.67 u/L | ALBUMIN [3]: 4.03 G/DL | ALKALINE PHOSPHATASE [3]: 406.33 u/L | ASPARTATE AMINOTRANSFERASE [3]: 71.33 u/L | BLOOD UREA NITROGEN [3]: 15.67 mg/dL | CHLORIDE [3]: 100.33 MEQ/L | CHOLESTEROL [3]: 71 mg/dL | CREATINE PHOSPHOKINASE [3]: 229.67 u/L | CREATININE [3]: 0.53 mg/dL | GLUCOSE [3]: 148.67 mg/dL | PHOSPHORUS [3]: 11.33 mg/dL | POTASSIUM [3]: 6.33 MEQ/L | SODIUM [3]: 144.33 MEQ/L | TOTAL BILIRUBIN [3]: 0.27 mg/dL | TOTAL PROTEIN [3]: 6.57 G/DL | BASOPHIL [4]: 0% | EOSINOPHIL [4]: 0.5% | ERYTHROCYTE COUNT [4]: 6.79 x10E6/uL | HEMATOCRIT [4]: 39% | HEMOGLOBIN [4]: 15.6 G/DL | LYMPHOCYTE [4]: 87% | MEAN CORPUSCULAR HEMOGLOBIN [4]: 23 pg | MEAN CORPUSCULAR HEMOGLOBIN CONCENTRATION [4]: 40.05 G/DL | MEAN CORPUSCULAR VOLUME [4]: 57.45 fL | MONOCYTE [4]: 0.5% | NEUTROPHIL [4]: 12% | PLATELET COUNT [4]: 1171.5 x10E3/uL | ALANINE AMINOTRANSFERASE [4]: 35 u/L | ALBUMIN [4]: 3.8 G/DL | ALKALINE PHOSPHATASE [4]: 332.33 u/L | ASPARTATE AMINOTRANSFERASE [4]: 57 u/L | BLOOD UREA NITROGEN [4]: 15 mg/dL | CHLORIDE [4]: 100.67 MEQ/L | CHOLESTEROL [4]: 70.33 mg/dL | CREATINE PHOSPHOKINASE [4]: 146.33 u/L | CREATININE [4]: 0.6 mg/dL | GLUCOSE [4]: 207 mg/dL | PHOSPHORUS [4]: 11.67 mg/dL | POTASSIUM [4]: 5.6 MEQ/L | SODIUM [4]: 143.67 MEQ/L | TOTAL BILIRUBIN [4]: 0.43 mg/dL | TOTAL PROTEIN [4]: 6.33 G/DL | BASOPHIL [5]: 0% | EOSINOPHIL [5]: 0.33% | ERYTHROCYTE COUNT [5]: 6.25 x10E6/uL | HEMATOCRIT [5]: 37.2% | HEMOGLOBIN [5]: 14.47 G/DL | LYMPHOCYTE [5]: 88.33% | MEAN CORPUSCULAR HEMOGLOBIN [5]: 23.2 pg | MEAN CORPUSCULAR HEMOGLOBIN CONCENTRATION [5]: 38.9 G/DL | MEAN CORPUSCULAR VOLUME [5]: 59.57 fL | MONOCYTE [5]: 1% | NEUTROPHIL [5]: 10.33% | PLATELET COUNT [5]: 1166.33 x10E3/uL | ALANINE AMINOTRANSFERASE [5]: 38 u/L | ALBUMIN [5]: 3.6 G/DL | ALKALINE PHOSPHATASE [5]: 276.67 u/L | ASPARTATE AMINOTRANSFERASE [5]: 56.33 u/L | BLOOD UREA NITROGEN [5]: 13.33 mg/dL | CHLORIDE [5]: 99 MEQ/L | CHOLESTEROL [5]: 75.67 mg/dL | CREATINE PHOSPHOKINASE [5]: 140 u/L | CREATININE [5]: 0.53 mg/dL | GLUCOSE [5]: 163.67 mg/dL | PHOSPHORUS [5]: 11.63 mg/dL | POTASSIUM [5]: 6.2 MEQ/L | SODIUM [5]: 143 MEQ/L | TOTAL BILIRUBIN [5]: 0.3 mg/dL | TOTAL PROTEIN [5]: 5.77 G/DL | BASOPHIL [6]: 0% | EOSINOPHIL [6]: 0% | ERYTHROCYTE COUNT [6]: 6.47 x10E6/uL | HEMATOCRIT [6]: 38.13% | HEMOGLOBIN [6]: 15 G/DL | LYMPHOCYTE [6]: 90.33% | MEAN CORPUSCULAR HEMOGLOBIN [6]: 23.2 pg | MEAN CORPUSCULAR HEMOGLOBIN CONCENTRATION [6]: 39.33 G/DL | MEAN CORPUSCULAR VOLUME [6]: 58.97 fL | MONOCYTE [6]: 0.33% | NEUTROPHIL [6]: 9.33% | PLATELET COUNT [6]: 1245.33 x10E3/uL | ALANINE AMINOTRANSFERASE [6]: 40 u/L | ALBUMIN [6]: 3.73 G/DL | ALKALINE PHOSPHATASE [6]: 320.33 u/L | ASPARTATE AMINOTRANSFERASE [6]: 55 u/L | BLOOD UREA NITROGEN [6]: 13.33 mg/dL | CHLORIDE [6]: 98.33 MEQ/L | CHOLESTEROL [6]: 72 mg/dL | CREATINE PHOSPHOKINASE [6]: 136.67 u/L | CREATININE [6]: 0.57 mg/dL | GLUCOSE [6]: 158 mg/dL | PHOSPHORUS [6]: 10.37 mg/dL | POTASSIUM [6]: 6.03 MEQ/L | SODIUM [6]: 144 MEQ/L | TOTAL BILIRUBIN [6]: 0.4 mg/dL | TOTAL PROTEIN [6]: 5.97 G/DL
